{"source": "paper PMC7915277", "about": "“Biochemical and Computational Studies of the Interaction between a Glucosamine Derivative, NAPA, and the IKKα Kinase” (International Journal of Molecular Sciences, 2021)", "molecular_target": "T1, IKKα (Homo sapiens, UniProt O15111)", "T1 construct": "gene CHUK; recombinant IKKα (Invitrogen), described as a monomer", "T1 sequence (O15111 1-745)": "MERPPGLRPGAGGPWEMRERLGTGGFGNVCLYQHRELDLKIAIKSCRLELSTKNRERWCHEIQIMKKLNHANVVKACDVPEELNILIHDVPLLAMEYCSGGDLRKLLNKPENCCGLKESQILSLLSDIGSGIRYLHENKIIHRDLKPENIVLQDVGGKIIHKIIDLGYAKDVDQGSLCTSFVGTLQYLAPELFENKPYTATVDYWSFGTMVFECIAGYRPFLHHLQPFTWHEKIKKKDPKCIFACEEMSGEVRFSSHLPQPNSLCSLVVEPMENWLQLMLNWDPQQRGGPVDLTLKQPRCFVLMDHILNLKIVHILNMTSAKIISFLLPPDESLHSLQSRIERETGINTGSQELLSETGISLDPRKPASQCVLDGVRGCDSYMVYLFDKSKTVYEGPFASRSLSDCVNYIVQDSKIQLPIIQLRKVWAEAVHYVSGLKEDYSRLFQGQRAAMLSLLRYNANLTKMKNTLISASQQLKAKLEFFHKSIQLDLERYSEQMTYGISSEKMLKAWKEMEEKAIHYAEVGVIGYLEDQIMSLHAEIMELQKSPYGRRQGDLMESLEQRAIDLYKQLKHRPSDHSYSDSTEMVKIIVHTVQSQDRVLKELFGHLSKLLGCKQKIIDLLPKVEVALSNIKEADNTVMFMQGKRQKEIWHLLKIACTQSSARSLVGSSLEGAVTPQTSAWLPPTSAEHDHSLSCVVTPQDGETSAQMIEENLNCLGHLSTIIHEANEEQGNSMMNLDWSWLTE", "test": "in vitro kinase assay with recombinant IKKα and IKKtide, UPLC-MS readout", "assay_type": "biochemical"}
{"smiles": "CC(=O)N[C@@H](Cc1ccccc1)C(=O)N[C@@H]1[C@@H](O)[C@H](O)[C@@H](CO)O[C@H]1O", "note": "[NAPA, 2-(N-Acetyl)-L-phenylalanylamido-2-deoxy-β -D-glucose]", "values": [{"measurement": "IC50", "value": "500 ± 86", "unit": "µM"}]}
